US20200255478A1, “NOVEL COMPOUNDS ACTIVATING THE NRF2 PATHWAY” (Almirall, S.A., priority 2017, published 2020)
Starred links: 1 amine or outer side, 2 acyl side, 3 side chain; linkers in the order of their positions; H or OH if unused. Positions of bridges follow the written chain, without caps; N, C: chain ends. Non-standard residues stand in square brackets, D forms with d. Residues, ends and D or L forms follow the SMILES beside them. *: point of attachment. X8 = O=C([C@H](Cc1cccc([*:3])c1)N[*:1])[*:2]; X7 = c1ccc(-c2ccccc2C[*:2])c(C[*:1])c1; mXylylene = c1cc(C[*:1])cc(C[*:2])c1; X2 = c1ccc2cc(C[*:2])c(C[*:1])cc2c1; Stearoyl = CCCCCCCCCCCCCCCCCC(=O)*; βAla = NCCC(=O)O

Biological target: Keap1-Maltose Binding Protein (MBP tag) (Homo sapiens, UniProt Q14145)
Assay: Nrf2-Keap1 HTRF (TR-FRET) binding assay: displacement of biotinylated ETGE peptide from Keap1-MBP
Details: not given

Chain of Keap1-Maltose Binding Protein (MBP tag) (Q14145 whole entry): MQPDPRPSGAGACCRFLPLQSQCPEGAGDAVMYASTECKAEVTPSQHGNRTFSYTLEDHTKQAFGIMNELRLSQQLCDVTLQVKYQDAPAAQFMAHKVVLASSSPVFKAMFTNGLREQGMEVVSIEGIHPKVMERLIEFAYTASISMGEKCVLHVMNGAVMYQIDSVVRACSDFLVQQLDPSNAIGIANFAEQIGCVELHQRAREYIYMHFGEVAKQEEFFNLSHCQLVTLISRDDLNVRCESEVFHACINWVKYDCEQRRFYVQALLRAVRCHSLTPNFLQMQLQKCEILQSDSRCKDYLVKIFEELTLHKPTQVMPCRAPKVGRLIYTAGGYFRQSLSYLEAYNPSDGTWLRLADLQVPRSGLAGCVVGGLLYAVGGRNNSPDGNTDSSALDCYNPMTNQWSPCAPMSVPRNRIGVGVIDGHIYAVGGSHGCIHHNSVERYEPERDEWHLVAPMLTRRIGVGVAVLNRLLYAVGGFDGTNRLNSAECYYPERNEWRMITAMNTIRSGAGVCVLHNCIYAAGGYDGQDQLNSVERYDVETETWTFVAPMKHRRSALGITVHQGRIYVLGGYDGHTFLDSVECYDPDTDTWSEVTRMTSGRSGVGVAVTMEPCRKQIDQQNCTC

| SMILES | IC50 [nM] |
| --- | --- |
| CCCCCCCCCCCCCCCCCCCC(=O)N[C@H]1C[C@H]2C(=O)N[C@@H](CCC(N)=O)C(=O)N[C@H]3CSCC4(COC4)CSC[C@H](NC(=O)[C@H](CCC(=O)O)NC(=O)CNC(=O)[C@H]([C@@H](C)O)NC(=O)[C@H](CCC(=O)O)NC(=O)[C@@H]4CCCN4C(=O)[C@H](CC(=O)O)NC3=O)C(=O)N[C@@H](CC(C)C)C(=O)N3CCC[C@@H]3C(=O)N2C1 [Example 95, {[&^1Pro((4S)-NH-Arachidyl)-Gln-Cys(&^2)-Asp-Pro-Glu-Thr-Gly-Glu-Cys(&^3)-Leu-D-Pro&^1][&^2(3,3-oxetanediyl)dimethylene&^3]}] | < 1 |
| CCCCCCCCCCCCCCCCCC(=O)N[C@H]1C[C@@H](C(=O)N[C@@H](CCC(N)=O)C(=O)N[C@H]2CSCc3ccccc3CSC[C@@H](C(=O)N[C@@H](CC(C)C)C(=O)N3CCC[C@@H]3C(N)=O)NC(=O)[C@H](CCC(=O)O)NC(=O)CNC(=O)[C@H]([C@@H](C)O)NC(=O)[C@H](CCC(=O)O)NC(=O)[C@@H]3CCCN3C(=O)[C@H](CC(=O)O)NC2=O)N(C(C)=O)C1 [Example 75, {[Acetyl-Pro((4S)-NH-Stearyl)-Gln-Cys(&^1)-Asp-Pro-Glu-Thr-Gly-Glu-Cys(&^2)-Leu-D-Pro-NH2][&^1(1,2-phenylenediyl)dimethylene^2]}] | 1 to 100 |
| CCCCCCCC/C=C\CCCCCCCC(=O)N[C@H]1C[C@H]2C(=O)N[C@@H](CCC(N)=O)C(=O)N[C@H]3CSCc4ccccc4CSC[C@H](NC(=O)[C@H](CCC(=O)O)NC(=O)CNC(=O)[C@H]([C@@H](C)O)NC(=O)[C@H](CCC(=O)O)NC(=O)[C@@H]4CCCN4C(=O)[C@H](CC(=O)O)NC3=O)C(=O)N[C@@H](CC(C)C)C(=O)N3CCC[C@@H]3C(=O)N2C1 [Example 88, {[&^1Pro((4S)-NH-oleyl)-Gln-Cys(&^2)-Asp-Pro-Glu-Thr-Gly-Glu-Cys(&^3)-Leu-D-Pro&^1][&^2(1,2-phenylenediyl)dimethylene&^3]}] | < 1 |

Same assay, conditions: HTRF (TR-FRET); displacement of ETGE-biotin from Keap1-MBP; values banded into grades; read-out: Binding (IC50) ETGE-Keap1

| SMILES | IC50 [nM] |
| --- | --- |
| CCCCCCCCCCCCCCCCCC(=O)NCCC(=O)N[C@@H](CC(C)C)C(=O)N[C@@H](CCC(N)=O)C(=O)N[C@H]1CSCc2cc3ccccc3cc2CSC[C@@H](C(=O)N[C@@H](CC(C)C)C(=O)N2CCC[C@H]2C(=O)O)NC(=O)[C@H](CCC(=O)O)NC(=O)CNC(=O)[C@H]([C@@H](C)O)NC(=O)[C@H](CCC(=O)O)NC(=O)[C@H](C)NC(=O)[C@H](CC(=O)O)NC1=O [Example 38, {[Stearyl-βAla-Leu-Gln-Cys(&^1)-Asp-Ala-Glu-Thr-Gly-Glu-Cys(&^2)-Leu-Pro-OH][&^1(naphthalene)2,3-diyldimethylene&^2]}] ({Stearoyl-βAla}-LQCDAETGECLP-OH; linker 3-10 via X2) | 1 to 100 |
| CCCCCCCCCCCCCCCCCC(=O)NCCC(=O)N[C@@H](CC(C)C)C(=O)N[C@@H](CCC(N)=O)C(=O)N[C@H]1CSCc2cccc(c2)CSC[C@@H](C(=O)N[C@@H](CC(C)C)C(=O)N2CCC[C@H]2C(=O)O)NC(=O)[C@H](CCC(=O)O)NC(=O)CNC(=O)[C@H]([C@@H](C)O)NC(=O)[C@H](CCC(=O)O)NC(=O)[C@@H]2CCCN2C(=O)[C@H](CC(=O)O)NC1=O [Example 37, {[Stearyl-βA1a-Leu-Gln-Cys(&^1)-Asp-Pro-Glu-Thr-Gly-Glu-Cys(&^2)-Leu-Pro-OH][&^1(1,3-phenylenediyl)dimethylene&^2]}] ({Stearoyl-βAla}-LQCDPETGECLP-OH; linker 3-10 via mXylylene) | 1 to 100 |
| CC(C)C[C@H](NC(=O)[C@H](CC(C)C)NC(=O)[C@@H]1CSCc2ccccc2CSC[C@H](NC(=O)[C@H](CC(C)C)NC(=O)[C@@H](N)CC(C)C)C(=O)N[C@@H](CC(=O)O)C(=O)N2CCC[C@H]2C(=O)N[C@@H](CCC(=O)O)C(=O)N[C@@H]([C@@H](C)O)C(=O)NCC(=O)N[C@@H](CCC(=O)O)C(=O)N1)C(=O)NCCC(=O)N[C@@H](CCCNC(=N)N)C(=O)N[C@@H](CCCCN)C(=O)N[C@@H](CCCCN)C(=O)N[C@@H](CCCNC(=N)N)C(=O)N[C@@H](CCCNC(=N)N)C(=O)N[C@@H](CCC(N)=O)C(=O)N[C@@H](CCCNC(=N)N)C(=O)N[C@@H](CCCNC(=N)N)C(=O)N[C@@H](CCCNC(=N)N)C(N)=O [Example 60] | < 1 |
| CCCCCCCCCCCCCCCCCC(=O)N[C@H]1CCCCNC(=O)[C@H]2CCCN2C(=O)[C@H](CC(C)C)NC(=O)[C@@H]2CSCc3ccccc3CSC[C@H](NC(=O)[C@H](CCC(N)=O)NC1=O)C(=O)N[C@@H](CC(=O)O)C(=O)N1CCC[C@H]1C(=O)N[C@@H](CCC(=O)O)C(=O)N[C@@H]([C@@H](C)O)C(=O)NCC(=O)N[C@@H](CCC(=O)O)C(=O)N2 [Example 92, {[Stearyl-Lys(&^1)-Gln-Cys(&^2)-Asp-Pro-Glu-Thr-Gly-Glu-Cys(&^3)-Leu-D-Pro&^1][&^2(1,2-phenylenediyl)dimethylene&^3]}] | < 1 |
| CC(=O)N[C@H]1CSCc2ccccc2-c2ccccc2CSC[C@@H](C(N)=O)NC(=O)[C@H](CCC(=O)O)NC(=O)CNC(=O)[C@H]([C@@H](C)O)NC(=O)[C@H](CCC(=O)O)NC(=O)[C@H](CCC(=O)O)NC(=O)[C@H](CC(=O)O)NC1=O [Example 24, {[Acetyl-Cys(&^1)-Asp-Glu-Glu-Thr-Gly-Glu-Cys(&^2)-NH2][&^1(1,1′-biphenyl)2,2′-diyldimethylene&^2]}] (Ac-CDEETGEC-NH2; linker 1-8 via X7) | 1 to 100 |
| Cc1cc(C)c2c(C)c1CSC[C@@H](C(=O)N[C@@H](CC(C)C)C(=O)N[C@@H](CC(C)C)C(=O)NCCC(=O)N[C@@H](CCCNC(=N)N)C(=O)N[C@@H](CCCCN)C(=O)N[C@@H](CCCCN)C(=O)N[C@@H](CCCNC(=N)N)C(=O)N[C@@H](CCCNC(=N)N)C(=O)N[C@@H](CCC(N)=O)C(=O)N[C@@H](CCCNC(=N)N)C(=O)N[C@@H](CCCNC(=N)N)C(=O)N[C@@H](CCCNC(=N)N)C(N)=O)NC(=O)[C@H](CCC(=O)O)NC(=O)CNC(=O)[C@H]([C@@H](C)O)NC(=O)[C@H](CCC(=O)O)NC(=O)[C@@H]1CCCN1C(=O)[C@H](CC(=O)O)NC(=O)[C@@H](NC(=O)[C@H](CC(C)C)NC(=O)[C@@H](N)CC(C)C)CSC2 [Example 59] | < 1 |
| CC(C)C[C@H](NC(=O)[C@H](CC(C)C)NC(=O)[C@@H]1CSCc2cc3ccccc3cc2CSC[C@H](NC(=O)[C@H](CC(C)C)NC(=O)[C@@H](N)CC(C)C)C(=O)N[C@@H](CC(=O)O)C(=O)N2CCC[C@H]2C(=O)N[C@@H](CCC(=O)O)C(=O)N[C@@H]([C@@H](C)O)C(=O)NCC(=O)N[C@@H](CCC(=O)O)C(=O)N1)C(=O)NCCC(=O)N[C@@H](CCCNC(=N)N)C(=O)N[C@@H](CCCCN)C(=O)N[C@@H](CCCCN)C(=O)N[C@@H](CCCNC(=N)N)C(=O)N[C@@H](CCCNC(=N)N)C(=O)N[C@@H](CCC(N)=O)C(=O)N[C@@H](CCCNC(=N)N)C(=O)N[C@@H](CCCNC(=N)N)C(=O)N[C@@H](CCCNC(=N)N)C(N)=O [Example 58] | < 1 |
| CC(C)C[C@H](NC(=O)[C@@H]1CSc2[nH]c3ccccc3c2C[C@H](NC(=O)[C@H](CCC(N)=O)NC(=O)[C@@H](N)CC(C)C)C(=O)N[C@@H](CC(=O)O)C(=O)N[C@@H](CCC(=O)O)C(=O)N[C@@H](CCC(=O)O)C(=O)N[C@@H]([C@@H](C)O)C(=O)NCC(=O)N[C@@H](CCC(=O)O)C(=O)N1)C(=O)N1CCC[C@H]1C(=O)NCCC(=O)N[C@@H](CCCNC(=N)N)C(=O)N[C@@H](CCCCN)C(=O)N[C@@H](CCCCN)C(=O)N[C@@H](CCCNC(=N)N)C(=O)N[C@@H](CCCNC(=N)N)C(=O)N[C@@H](CCC(N)=O)C(=O)N[C@@H](CCCNC(=N)N)C(=O)N[C@@H](CCCNC(=N)N)C(=O)N[C@@H](CCCNC(=N)N)C(N)=O [Example 8] | 1 to 100 |
| CC(C)C[C@H](NC(=O)[C@@H]1CSCc2cccc(c2)CSC[C@H](NC(=O)[C@H](CCC(N)=O)NC(=O)[C@@H](N)CC(C)C)C(=O)N[C@@H](CC(=O)O)C(=O)N[C@@H](CCC(=O)O)C(=O)N[C@@H](CCC(=O)O)C(=O)N[C@@H]([C@@H](C)O)C(=O)NCC(=O)N[C@@H](CCC(=O)O)C(=O)N1)C(=O)N1CCC[C@H]1C(=O)NCCC(=O)N[C@@H](Cc1ccc(O)cc1)C(=O)N[C@@H](C)C(=O)N[C@@H](CCCNC(=N)N)C(=O)N[C@@H](C)C(=O)N[C@@H](C)C(=O)N[C@@H](C)C(=O)N[C@@H](CCCNC(=N)N)C(=O)N[C@@H](CCC(N)=O)C(=O)N[C@@H](C)C(=O)N[C@@H](CCCNC(=N)N)C(=O)N[C@@H](C)C(N)=O [Example 13] (H-LQCDEETGECLP[βAla]YARAAARQARA-NH2; linker 3-10 via mXylylene) | 1 to 100 |
| CC(C)C[C@H](NC(=O)[C@@H]1CSCc2cc3ccccc3cc2CSC[C@H](NC(=O)[C@H](CCC(N)=O)NC(=O)[C@@H](N)CC(C)C)C(=O)N[C@@H](CC(=O)O)C(=O)N2CCC[C@H]2C(=O)N[C@@H](CCC(=O)O)C(=O)N[C@@H]([C@@H](C)O)C(=O)NCC(=O)N[C@@H](CCC(=O)O)C(=O)N1)C(=O)N1CCC[C@H]1C(=O)NCCC(=O)N[C@@H](CCCNC(=N)N)C(=O)N[C@@H](CCCNC(=N)N)C(=O)N[C@@H](CCCNC(=N)N)C(=O)N[C@@H](CCCNC(=N)N)C(=O)N[C@@H](CCCNC(=N)N)C(=O)N[C@@H](CCCNC(=N)N)C(=O)N[C@@H](CCCNC(=N)N)C(=O)N[C@@H](CCCNC(=N)N)C(N)=O [Example 68, {[H-Leu-G1n-Cys(&^1)-Asp-Pro-Glu-Thr-G1y-Glu-Cys(&^2)-Leu-Pro-βAla-Arg8-NH2][&^1(naphthalene)2,3-diyldimethylene&^2]}] | 1 to 100 |
| CCCCCCCCCCCCCCCCCC(=O)NCCC(=O)N[C@@H](CC(C)C)C(=O)N[C@@H](CCC(N)=O)C(=O)N[C@H]1Cc2cccc(c2)SC[C@@H](C(=O)N[C@@H](CC(C)C)C(=O)N2CCC[C@H]2C(=O)O)NC(=O)[C@H](CCC(=O)O)NC(=O)CNC(=O)[C@H]([C@@H](C)O)NC(=O)[C@H](CCC(=O)O)NC(=O)[C@@H]2CCCN2C(=O)[C@H](CC(=O)O)NC1=O [Example 40, Stearyl-βAla-Leu-Gln-Phe(m-&^1)-Asp-Pro-Glu-Thr-Gly-Glu-Cys(&^1)-Leu-Pro-OH] ({Stearoyl-βAla}-LQ[X8]DPETGECLP-OH; thioether 3-10) | 1 to 100 |
| CC(=O)N[C@H]1Cc2cccc(c2)SC[C@@H](C(N)=O)NC(=O)[C@H](CCC(=O)O)NC(=O)CNC(=O)[C@H]([C@@H](C)O)NC(=O)[C@H](CCC(=O)O)NC(=O)[C@H](CCC(=O)O)NC(=O)[C@H](CC(=O)O)NC1=O [Example 22, Acetyl-Phe(m-&^1)-Asp-Glu-Glu-Thr-Gly-Glu-Cys(&^1)-NH2] (Ac-[X8]DEETGEC-NH2; thioether 1-8) | 1 to 100 |
